Series [1] concerns glucuronosyltransferases (UGTs). Briefly: Phase II metabolism of 7-hydroxycoumarin in enteroid monolayers, static Transwell. It counts as in vitro ADME, human. The settings on record: enteroids, 12 µM. As for the experimental part: (§1) For specific inhibition, 5 µM elacridar and 5 µM ketoconazole (both Sigma-Aldrich, Zwijndrecht, The Netherlands) were used. The drug cocktail was added to the apical medium reservoirs of chip experiments (flow) and the apical insert of static Transwell inserts. Inhibitors were added to both apical dose solution and basolateral transport buffer. During experiments, samples were collected at different timepoints from both apical and basolateral medium reservoirs, mixed with equal volume of ultrapure MeOH and stored at −20 °C until analysis by LC-MS/MS.
(§2) For quantification, a standard of parental compounds and metabolites was prepared in the same medium as samples. Metabolites included were 1’-hydroxymidazolam (Sigma-Aldrich) and 7-hydroxycoumarin glucuronide (LGC Standards, OLY, UK). Both standard and samples were centrifuged for 10 min at 1500× g to precipitate protein, and subsequently, 1 µL was injected. […] A limit of quantification (LOQ) was determined for each compound based on the standard curve and a limit of detection (LOD) was determined based on a noise signal. For each experiment, corresponding dose and blanks were included in measurements. Recovery was calculated as the percentage of original dose added to the system.
(§3) All static control experiments were performed in cell monolayers cultured on transparent Transwell inserts (Corning, Life Sciences BV, Amsterdam, The Netherlands). […]

For series [2] the test system is unchanged. Nature of the series: Phase II metabolism of 7-hydroxycoumarin in enteroid monolayers, chip system. The settings on record: enteroids, 12 µM. Format: in vitro ADME, human. The protocol:
To add the culture disc with cells into the system, it was transferred to a biosafety cabinet, the chips were opened from the top and the discs were added to the chip, after which they were closed using a twisting cap mechanism. Sufficient medium was added to the chip to ensure no air bubbles were trapped during this procedure. Flow speed was adjusted to 17 µL/min and the system was placed back into a cell culture incubator (37 °C, 5% CO2). After a short period of equilibration, transport medium (with/without compound of interest) was added to apical and basolateral reservoirs, with the basolateral medium containing 4% BSA. The medium volumes in the reservoirs depended on the duration of the experiment and the sample volumes required but were between 5 and 6.5 mL. To completely replace the medium inside the tubing and chip with fresh transport medium, the system was run without medium recirculation for 30 min prior to the start of measurements. Details on the permeability measurements are described below. […]
(§4) For quantification, a standard of parental compounds and metabolites was prepared in the same medium as samples. […] A limit of quantification (LOQ) was determined for each compound based on the standard curve and a limit of detection (LOD) was determined based on a noise signal. […] Recovery was calculated as the percentage of original dose added to the system.

For series [3] the following is noted: no reference given; cited from earlier work.
A short description of series [4]: Permeability in cell-on-chip system under laminar flow, enteroid monolayers. The settings on record: human. The protocol:
(§5) To add the culture disc with cells into the system, it was transferred to a biosafety cabinet, the chips were opened from the top and the discs were added to the chip, after which they were closed using a twisting cap mechanism. Sufficient medium was added to the chip to ensure no air bubbles were trapped during this procedure. Flow speed was adjusted to 17 µL/min and the system was placed back into a cell culture incubator (37 °C, 5% CO2). After a short period of equilibration, transport medium (with/without compound of interest) was added to apical and basolateral reservoirs, with the basolateral medium containing 4% BSA. The medium volumes in the reservoirs depended on the duration of the experiment and the sample volumes required but were between 5 and 6.5 mL. To completely replace the medium inside the tubing and chip with fresh transport medium, the system was run without medium recirculation for 30 min prior to the start of measurements. Details on the permeability measurements are described below.
(§6) Leakage to the basolateral medium was determined using the BioTek Synergy H1 microplate reader (BioSPX, Abcoude, The Netherlands). […] Apparent permeability values (Papp) were calculated according to Equation (1):(1) Papp=dQ/dt×(1/A×C0) in which dQ/dt is the amount of drug transported over the barrier (ng/sec), A is the exposed area of the cell monolayer (cm^2) and C0 is the initial dose concentration of the compound (ng/mL). All measurements were performed under flow (17 µL/min), and the chip system was inside a cell culture incubator (37 °C, 5%CO2) during the entire experiment, as described in Section 2.6.
(§7) Apical and basolateral medium reservoirs were sampled at t = 0, 1, 2 and 4 h. All measurements were performed under flow (17 µL/min), and the chip system was inside a cell culture incubator (37 °C, 5% CO2) during the entire experiment, as described in Section 2.6.
as §1, §4

Another series in a line: in vitro. The settings on record: human. The protocol: as §6, §7, §1, §2
(§8) All static control experiments were performed in cell monolayers cultured on transparent Transwell inserts (Corning, Life Sciences BV, Amsterdam, The Netherlands). Procedures for seeding and culturing were exactly the same as previously reported. […] The only difference was in the volume of apical (100 µL) and basolateral (600 µL) compartment, which was accounted for in Papp calculations. All measurements were performed inside a cell culture incubator (37 °C, 5% CO2).

The next series has as its target CYP3A4 (Homo sapiens, UniProt P08684). Nature of the series: Phase I metabolism of midazolam in enteroid monolayers, static Transwell. As to conditions: enteroids, static Transwell cultures. The protocol: as §1, §2, §3
A short description of series [5]: Compound recovery, cell-on-chip system. Format: in vitro ADME. As to conditions: human, read-out: Recovery, percentage of original dose.
For series [6], the system named is enteroid monolayers. Nature of the series: Permeability in cell-on-chip system under laminar flow, enteroid monolayers. As for the experimental part: as §5, §6, §7, §1, §4
In series [7] the test system is enteroid monolayers. Nature of the series: in vitro. The protocol:
as §6, §7, §1, §2, §8

For another series, the system named is Caco-2 monolayers. Nature of the series: Permeability in static Transwell inserts, Caco-2 monolayers. Format: in vitro ADME, human. As to conditions: static culture, intact Caco-2 monolayer. Background: Caco-2 cells form a polarised layer with tight junctions and transporters.

Read-outs that look alike come from different tables or passages of the source.

Data on eight compounds can be found in paper PMC11679574, “Intestinal Cells-on-Chip for Permeability Studies” (Micromachines, 2024).

A word on the Papp A→B: it is the apparent permeability from the apical to the basolateral side of a cell layer.

CYP3A4, sequence (P08684 whole entry): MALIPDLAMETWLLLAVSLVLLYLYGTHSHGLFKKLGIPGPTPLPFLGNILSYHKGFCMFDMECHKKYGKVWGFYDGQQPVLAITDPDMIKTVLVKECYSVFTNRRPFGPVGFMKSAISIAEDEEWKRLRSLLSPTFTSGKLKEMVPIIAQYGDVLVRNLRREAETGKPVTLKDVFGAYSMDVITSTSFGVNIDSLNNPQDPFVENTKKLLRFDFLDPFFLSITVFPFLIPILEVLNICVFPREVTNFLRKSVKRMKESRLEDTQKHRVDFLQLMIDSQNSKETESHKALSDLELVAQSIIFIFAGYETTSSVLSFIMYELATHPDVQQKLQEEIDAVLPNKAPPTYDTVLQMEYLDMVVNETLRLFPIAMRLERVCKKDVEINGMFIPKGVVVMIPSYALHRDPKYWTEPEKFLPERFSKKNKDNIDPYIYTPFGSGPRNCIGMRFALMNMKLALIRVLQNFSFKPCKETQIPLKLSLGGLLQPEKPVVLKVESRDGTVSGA
Protocol for Caco-2 monolayers: Leakage to the basolateral medium was determined using the BioTek Synergy H1 microplate reader (BioSPX, Abcoude, The Netherlands). FD4 was measured with an excitation/emission wavelength of 485 nm and 528 nm, and CB was measured at 365 nm and 412 nm, respectively. Apparent permeability values (Papp) were calculated according to Equation (1):(1) Papp=dQ/dt×(1/A×C0) in which dQ/dt is the amount of drug transported over the barrier (ng/sec), A is the exposed area of the cell monolayer (cm^2) and C0 is the initial dose concentration of the compound (ng/mL).
All static control experiments were performed in cell monolayers cultured on transparent Transwell inserts (Corning, Life Sciences BV, Amsterdam, The Netherlands). […] The only difference was in the volume of apical (100 µL) and basolateral (600 µL) compartment, which was accounted for in Papp calculations. All measurements were performed inside a cell culture incubator (37 °C, 5% CO2).

On to `O=c1ccc2ccc(O)cc2o1` [7OH-coumarin, 7-hydroxycoumarin], for which the 7-hydroxycoumarin glucuronide formation entry in series [1] and in series [2] was “confirm UGT activity” each time.

On to `Cc1cc(=O)n(-c2ccccc2)n1C` [Antipyrine, antipyrine], for which the “fraction absorbed (Fa)” value in [3] was 100%.

In the case of `CC(C)NCC(O)COc1ccc(CC(N)=O)cc1` (stereo not drawn) [Atenolol, atenolol], in [3], the “fraction absorbed (Fa)” value is recorded as 50%.

Consider `CN(C)C(=N)N=C(N)N` [Metformin, metformin], for which the Papp A→B in series [4] turned out to be 4.6 ×10⁻⁶ cm/s; in the series “in vitro” it was 1.44 ×10⁻⁶ cm/s.

For `Cc1ncc2n1-c1ccc(Cl)cc1C(c1ccccc1F)=NC2` [Midazolam, midazolam], the OH-midazolam formation entry is “absent” at CYP3A4 (in the presence of ketoconazole 5 µM) and “increase in OH-midazolam over time” at CYP3A4 (midazolam 10 µM). In addition, the recovery at 10 µM in series [5] (chips containing translucent membranes) amounted to 41%; in series [5] (chips with transparent membranes), 11%.

In the case of `CC(C)c1nc(N(C)S(C)(=O)=O)nc(-c2ccc(F)cc2)c1/C=C/[C@@H](O)C[C@@H](O)CC(=O)O` [Rosuvastatin, rosuvastatin], the Papp A→B came to 1.11 ×10⁻⁶ cm/s in [4] and 0.7 ×10⁻⁶ cm/s in “in vitro”. Besides, the “Papp (in words)” value in the series on enteroid monolayers [6] (enteroids, chip experiments, drug cocktail, 10 µM) was “low”; with enteroid monolayers [7] it was “low”.

Cascade Blue [CB]: the “Overall permeation compared to FD4” value with enteroid monolayers [6] (chip system, overall over cell types and membranes) is given as “approximately 2 fold”. For the same compound, the Papp is given as 0.08 ·10^−6 cm/s with enteroid monolayers [7] (static culture, intact enteroid monolayer) and 0.5 ·10^−6 cm/s with Caco-2 monolayers.

Dextran-FITC 4 kDa [FD4]: the “Papp A to B, Static” value in the series with enteroid monolayers [7] was found to be 0.01 ×10⁻⁶ cm/s.
